# Assay results as given in ChEMBL document CHEMBL1201862, “PubChem BioAssay data set” (2004).
# The source made the active and inactive calls.
# Columns and labels:
# [1] = molecular target: T1, Short transient receptor potential channel 4 (Mus musculus, UniProt Q9QUQ5); assay: block of DAMGO-driven TRPC4 calcium entry – cell-based, HEK293 TRPC4/mu-opioid, Fluo-4 calcium, dose response (AID 434942); format: functional;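 note: potency of inhibitors blocking the TRPC4 calcium response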
# T1 sequence (Q9QUQ5 whole entry): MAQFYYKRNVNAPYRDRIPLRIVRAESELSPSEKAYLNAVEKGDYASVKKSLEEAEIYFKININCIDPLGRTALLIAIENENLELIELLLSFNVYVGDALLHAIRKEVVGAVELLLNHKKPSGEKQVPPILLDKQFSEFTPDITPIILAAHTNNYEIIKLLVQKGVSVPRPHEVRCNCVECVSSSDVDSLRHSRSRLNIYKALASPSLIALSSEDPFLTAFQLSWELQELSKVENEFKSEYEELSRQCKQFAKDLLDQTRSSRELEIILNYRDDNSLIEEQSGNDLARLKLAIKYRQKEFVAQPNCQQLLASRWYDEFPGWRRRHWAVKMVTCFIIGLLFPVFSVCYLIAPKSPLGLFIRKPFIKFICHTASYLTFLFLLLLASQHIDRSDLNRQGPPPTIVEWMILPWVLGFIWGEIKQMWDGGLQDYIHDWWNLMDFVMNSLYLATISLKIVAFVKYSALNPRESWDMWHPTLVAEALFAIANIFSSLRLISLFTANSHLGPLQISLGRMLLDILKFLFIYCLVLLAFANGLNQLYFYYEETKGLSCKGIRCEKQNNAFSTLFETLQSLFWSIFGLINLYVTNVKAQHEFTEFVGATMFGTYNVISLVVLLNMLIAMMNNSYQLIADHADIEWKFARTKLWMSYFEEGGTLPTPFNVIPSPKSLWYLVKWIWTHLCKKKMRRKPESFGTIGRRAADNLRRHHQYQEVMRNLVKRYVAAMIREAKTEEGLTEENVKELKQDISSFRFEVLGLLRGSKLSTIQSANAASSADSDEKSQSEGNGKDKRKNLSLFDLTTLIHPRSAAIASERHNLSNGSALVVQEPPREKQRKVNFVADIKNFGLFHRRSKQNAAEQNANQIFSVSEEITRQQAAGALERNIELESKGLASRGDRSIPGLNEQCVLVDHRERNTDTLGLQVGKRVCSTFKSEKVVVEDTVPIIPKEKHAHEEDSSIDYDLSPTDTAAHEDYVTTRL
# [2] = molecular target: T2, Estrogen receptor (Homo sapiens, UniProt P03372);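 note: potency for inhibiting coactivator peptide recruitment to the receptor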
# T2 sequence (P03372 whole entry): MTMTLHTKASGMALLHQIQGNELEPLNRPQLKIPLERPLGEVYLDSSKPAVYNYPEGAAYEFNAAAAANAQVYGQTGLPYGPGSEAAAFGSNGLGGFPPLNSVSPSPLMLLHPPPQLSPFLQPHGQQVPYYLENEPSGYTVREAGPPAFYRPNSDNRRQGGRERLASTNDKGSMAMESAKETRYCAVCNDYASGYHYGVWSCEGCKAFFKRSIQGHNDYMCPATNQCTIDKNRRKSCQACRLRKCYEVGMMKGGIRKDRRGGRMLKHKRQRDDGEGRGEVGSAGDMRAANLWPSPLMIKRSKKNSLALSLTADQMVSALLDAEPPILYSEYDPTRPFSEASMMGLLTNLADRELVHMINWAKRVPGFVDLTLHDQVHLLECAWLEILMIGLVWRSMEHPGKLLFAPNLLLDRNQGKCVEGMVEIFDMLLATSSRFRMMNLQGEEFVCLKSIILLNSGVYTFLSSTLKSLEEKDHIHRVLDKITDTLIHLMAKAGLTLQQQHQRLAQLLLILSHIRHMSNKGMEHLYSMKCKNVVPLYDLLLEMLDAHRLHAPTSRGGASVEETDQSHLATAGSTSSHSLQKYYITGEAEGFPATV
# [3] = molecular target: Glyceraldehyde-3-phosphate dehydrogenase (Homo sapiens, UniProt P04406)
# [4] = molecular target: Nonstructural protein 1 (Influenza A virus, UniProt Q194T2); format: functional, Influenza A virus (A/California/07/2009(H1N1))
# [5] = molecular target: T3, Alkaline phosphatase, tissue-nonspecific isozyme (Homo sapiens, UniProt P05186); assay: potency against alkaline phosphatase TNAP – biochemical, luminescent, dose response, SAR follow-up (AID 1056)
# T3 sequence (P05186 whole entry): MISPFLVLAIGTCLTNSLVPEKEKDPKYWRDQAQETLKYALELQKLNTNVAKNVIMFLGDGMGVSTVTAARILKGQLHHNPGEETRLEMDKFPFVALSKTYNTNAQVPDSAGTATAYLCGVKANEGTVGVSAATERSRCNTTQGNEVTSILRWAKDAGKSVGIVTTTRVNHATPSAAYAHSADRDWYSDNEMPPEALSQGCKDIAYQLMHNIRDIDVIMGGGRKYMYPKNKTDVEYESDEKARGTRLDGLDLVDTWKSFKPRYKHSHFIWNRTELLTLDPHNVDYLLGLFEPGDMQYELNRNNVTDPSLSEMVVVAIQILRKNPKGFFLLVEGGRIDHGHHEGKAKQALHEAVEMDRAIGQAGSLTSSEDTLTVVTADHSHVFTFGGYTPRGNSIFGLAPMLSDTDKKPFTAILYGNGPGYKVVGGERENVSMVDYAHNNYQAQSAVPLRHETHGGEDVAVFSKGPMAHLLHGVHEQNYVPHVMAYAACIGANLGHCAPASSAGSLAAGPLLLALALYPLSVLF
# [6] = molecular target: T4, Leucine aminopeptidase (Plasmodium falciparum 3D7, UniProt Q8IL11); assay: P. falciparum M17LAP inhibitors, primary screen, biochemical, fluorogenic H-Leu-NHMec substrate, 1536-well (AID 1619); format: functional
# T4 sequence (Q8IL11 whole entry): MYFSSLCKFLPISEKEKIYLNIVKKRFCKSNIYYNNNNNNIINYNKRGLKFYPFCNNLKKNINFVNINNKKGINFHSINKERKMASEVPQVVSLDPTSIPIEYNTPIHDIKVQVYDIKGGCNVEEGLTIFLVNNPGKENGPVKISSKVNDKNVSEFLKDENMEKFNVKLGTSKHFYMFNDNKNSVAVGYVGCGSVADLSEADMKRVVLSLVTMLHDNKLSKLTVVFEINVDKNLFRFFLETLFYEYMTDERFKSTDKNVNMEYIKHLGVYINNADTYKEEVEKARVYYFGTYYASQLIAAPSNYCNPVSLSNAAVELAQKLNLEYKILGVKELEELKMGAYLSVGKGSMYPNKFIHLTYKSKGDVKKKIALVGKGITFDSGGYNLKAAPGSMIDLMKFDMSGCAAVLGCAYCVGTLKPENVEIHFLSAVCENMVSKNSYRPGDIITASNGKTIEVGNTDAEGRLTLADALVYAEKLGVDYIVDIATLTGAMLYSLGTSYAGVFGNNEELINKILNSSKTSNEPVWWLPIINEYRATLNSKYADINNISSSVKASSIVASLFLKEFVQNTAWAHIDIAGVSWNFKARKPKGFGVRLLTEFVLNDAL
# [7] = NIH3T3 cell viability loss – ATP luminescence, mouse fibroblasts, counter-screen, dose response (AID 2010); format: functional, cell-based;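 note: cells exposed to compound for about 90 hours before reading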
# [8] = Trypanosoma cruzi growth suppression in host cells – NIH3T3 host cells, beta-gal luminescence, confirmation (AID 2044); format: functional, cell-based;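 note: intracellular parasites grown in NIH/3T3 mouse fibroblasts as host cells; luminescent beta-galactosidase reporter signal from transgenic T. cruzi replicating inside host cells; inhibitors lower the luminescence signal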
# [9] = test system: H9c2; assay: cells; format: functional, cell-based; settings: Rattus norvegicus, H9c2, Myocardium;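 note: confirmatory concentration-response retest of ultra-high-throughput screening hits for modulation of myocardial damage; cell death induced by hydrogen peroxide oxidative stress; compound pretreatment for 60 min then peroxide exposure for 2 h; potency is for protecting the cells against peroxide damage rather than for killing them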
# [10] = molecular target: T5, Polyadenylate-binding protein 1 (Homo sapiens, UniProt P11940); assay: MLLE domain peptide-binding blockers, IC50 – biochemical, fluorescence polarization, FITC-PAM2 peptide, dose response (AID 602259); format: functional; settings: read-out: IC50_Mean
# [11] = molecular target: T5, Polyadenylate-binding protein 1; assay: MLLE binding blockers, Cy5 peptide tracer – biochemical, fluorescence polarization, Cy5-PAM2 peptide, secondary, miRNA deadenylation inhibitor project, dose response (AID 602260); format: functional; settings: read-out: IC50_Mean
# [12] = molecular target: T6, RNA-binding protein pos-1 (Caenorhabditis elegans, UniProt G5EF15); assay: disruptors of C. elegans POS-1 RNA interaction – biochemical, fluorescence polarization, dose response (AID 1964);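 note: purified POS-1 fused to maltose binding protein made in E. coli; potency of compounds blocking POS-1 binding to fluorescent RNA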
# T6 sequence (G5EF15 whole entry): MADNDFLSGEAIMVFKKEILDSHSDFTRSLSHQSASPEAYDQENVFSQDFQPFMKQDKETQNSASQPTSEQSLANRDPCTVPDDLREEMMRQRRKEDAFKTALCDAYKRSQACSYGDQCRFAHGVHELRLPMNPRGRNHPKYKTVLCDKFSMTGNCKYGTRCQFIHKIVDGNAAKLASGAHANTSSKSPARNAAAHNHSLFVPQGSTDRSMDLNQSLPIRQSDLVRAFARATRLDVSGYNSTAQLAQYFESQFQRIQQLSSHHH
# [13] = molecular target: T7, Zinc finger protein mex-5 (Caenorhabditis elegans, UniProt Q9XUB2); assay: potency of MEX-5 RNA-binding blockers – biochemical, C. elegans, fluorescence polarization, dose response (AID 1960)
# T7 sequence (Q9XUB2 whole entry): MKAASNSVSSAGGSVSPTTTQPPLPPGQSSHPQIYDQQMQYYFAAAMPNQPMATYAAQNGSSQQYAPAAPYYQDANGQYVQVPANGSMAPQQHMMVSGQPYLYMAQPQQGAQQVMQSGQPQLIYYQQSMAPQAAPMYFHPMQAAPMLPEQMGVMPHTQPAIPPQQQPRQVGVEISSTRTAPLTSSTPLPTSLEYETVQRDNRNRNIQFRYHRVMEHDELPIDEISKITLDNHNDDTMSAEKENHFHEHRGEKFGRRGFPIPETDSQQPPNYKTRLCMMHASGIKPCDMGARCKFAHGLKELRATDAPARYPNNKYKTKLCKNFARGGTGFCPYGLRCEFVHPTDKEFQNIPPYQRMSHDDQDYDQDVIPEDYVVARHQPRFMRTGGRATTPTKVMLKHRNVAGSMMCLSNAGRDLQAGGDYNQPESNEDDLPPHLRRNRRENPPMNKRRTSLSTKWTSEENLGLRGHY
# [14] = Luminescence Cell-Based Dose Response HTS to Identify Activators of Luciferase Translation or Activity in H4 […] Cells. [Related pubchem assays: 1829 (Project Summary), 1814 (Primary HTS)]; format: functional
# [15] = blockers of HIV-1 envelope-mediated cell-cell fusion – cherry-pick, dose response (AID 652057); format: functional, cell-based
# [16] = blockers of HIV-1 ZM109 envelope-driven cell-cell fusion – HeLa effector, CEM target cells, luciferase, cherry-pick, dose response (AID 652058); format: functional, cell-based;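 note: luciferase signal from HIV-1 Env mediated cell-cell fusion of effector and target cells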
# [17] = HIV-1 AD8 envelope cell-cell fusion blockers – cherry-pick, dose response (AID 652062); format: functional, cell-based;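 note: luciferase signal from cell-cell fusion driven by HIV-1 clade B AD8 Env; potency is for inhibitors of fusion seen as a drop in luminescence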
# [18] = molecular target: Paired box protein Pax-8 (Homo sapiens, UniProt Q06710); assay: PAX8 transcriptional activity inhibition in RMG-I – RMG-I cells, luciferase, cherry-pick, dose response (AID 687027); format: functional, cell-based;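 note: luciferase reporter driven by Pax8 target thyroperoxidase promoter measured by SteadyGlo luminescence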
# Sequence of Paired box protein Pax-8 (Q06710 whole entry): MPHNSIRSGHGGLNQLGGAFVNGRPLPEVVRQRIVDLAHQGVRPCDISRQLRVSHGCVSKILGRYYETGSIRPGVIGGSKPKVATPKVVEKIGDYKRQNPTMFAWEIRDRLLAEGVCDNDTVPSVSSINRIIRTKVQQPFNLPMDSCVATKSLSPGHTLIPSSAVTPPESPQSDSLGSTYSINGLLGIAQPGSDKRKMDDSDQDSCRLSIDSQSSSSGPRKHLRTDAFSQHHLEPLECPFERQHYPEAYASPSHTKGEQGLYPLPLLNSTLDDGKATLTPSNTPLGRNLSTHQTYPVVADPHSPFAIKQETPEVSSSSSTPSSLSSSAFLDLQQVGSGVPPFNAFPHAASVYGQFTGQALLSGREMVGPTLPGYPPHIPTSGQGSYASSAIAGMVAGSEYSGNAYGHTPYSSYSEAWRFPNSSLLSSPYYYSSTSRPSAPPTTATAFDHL
# Sequence of Glyceraldehyde-3-phosphate dehydrogenase (P04406 whole entry): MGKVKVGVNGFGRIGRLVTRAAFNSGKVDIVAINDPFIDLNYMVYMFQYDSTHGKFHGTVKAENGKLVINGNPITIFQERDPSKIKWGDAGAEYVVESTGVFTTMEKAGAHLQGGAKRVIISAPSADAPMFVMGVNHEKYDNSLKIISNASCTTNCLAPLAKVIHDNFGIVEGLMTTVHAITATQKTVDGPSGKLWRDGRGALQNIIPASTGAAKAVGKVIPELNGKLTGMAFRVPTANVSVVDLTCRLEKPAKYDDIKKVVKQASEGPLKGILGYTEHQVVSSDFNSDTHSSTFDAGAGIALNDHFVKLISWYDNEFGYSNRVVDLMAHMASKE
# T5 sequence (P11940 whole entry, the tested form may be a part): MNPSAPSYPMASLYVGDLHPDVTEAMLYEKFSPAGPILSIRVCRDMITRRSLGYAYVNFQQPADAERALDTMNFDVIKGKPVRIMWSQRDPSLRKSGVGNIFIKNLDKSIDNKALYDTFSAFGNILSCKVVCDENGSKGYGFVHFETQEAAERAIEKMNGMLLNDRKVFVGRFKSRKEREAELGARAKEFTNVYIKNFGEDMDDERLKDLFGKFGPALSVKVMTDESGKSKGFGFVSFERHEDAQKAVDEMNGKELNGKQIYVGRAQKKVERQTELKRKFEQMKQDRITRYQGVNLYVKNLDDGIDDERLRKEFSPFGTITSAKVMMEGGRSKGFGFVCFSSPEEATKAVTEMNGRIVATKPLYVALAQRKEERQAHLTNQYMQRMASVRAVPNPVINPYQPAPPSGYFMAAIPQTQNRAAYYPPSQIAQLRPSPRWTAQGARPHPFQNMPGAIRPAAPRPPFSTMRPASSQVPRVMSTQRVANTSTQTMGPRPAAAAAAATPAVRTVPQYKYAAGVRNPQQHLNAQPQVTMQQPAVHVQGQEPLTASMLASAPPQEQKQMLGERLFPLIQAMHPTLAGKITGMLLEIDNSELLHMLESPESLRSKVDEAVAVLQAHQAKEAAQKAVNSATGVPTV
# Sequence of Nonstructural protein 1 (Q194T2 whole entry): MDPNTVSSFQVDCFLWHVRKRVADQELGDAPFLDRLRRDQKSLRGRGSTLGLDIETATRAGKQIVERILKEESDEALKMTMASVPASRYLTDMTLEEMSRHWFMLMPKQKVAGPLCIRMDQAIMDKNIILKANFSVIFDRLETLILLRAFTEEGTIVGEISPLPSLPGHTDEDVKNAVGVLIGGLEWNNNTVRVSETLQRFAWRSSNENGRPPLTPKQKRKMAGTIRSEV
structure (smiles),measurement,setting,value
CCCn1c(NCc2ccc(C)o2)nc2ccccc21,EC50,[1],5.31 µM (active)
COc1ccc2nc3oc(C(=O)N4CCN(c5cccc(C(F)(F)F)c5)CC4)cc3cc2c1,IC50,[2],15.4 µM (active)
Cc1nc2sccn2c1-c1nc(-c2cc3ccccc3o2)cs1,IC50,[2],10.7 µM (active)
Cc1ccc(NC2=NC(=O)/C(=C/c3ccc(O)c([N+](=O)[O-])c3)S2)cc1Cl,IC50,[3],> 100 µM (not active)
O=[N+]([O-])c1ccc(N2CCOCC2)cc1NC(c1ccccc1)c1ccccc1,IC50,[4],> 100 µM (active)
COC(=O)c1cc(-c2ccc(C)cc2C)n[nH]1,IC50,[5],1.62 µM (active)
same,IC50,[3],> 100 µM (not active)
O=c1c2ccccc2nc(SCc2ccccc2)n1CC1CCCO1 (configuration not stated),EC50,[1],3.35 µM (active)
CCSc1nnc(NC(=O)C2CCCCC2C(=O)OCC(F)(F)C(F)F)s1 (configuration not stated),IC50,[6],76.8 µM (active)
Cc1nnc(SCC(=O)Nc2cccc(C(F)(F)F)c2)[nH]c1=O,IC50,[6],15.1 µM (active)
CCCCn1c(NC(=O)c2ccccc2)nc2ccccc21,EC50,[7],11.3 µM (active)
same,EC50,[8],2.15 µM (active)
same,IC50,[9],9.17 µM (active)
same,EC50,[1],5.96 µM (active)
CCOC(=O)CC(=O)CSc1nc(O)c2sc(=S)n(-c3ccccc3)c2n1,IC50,[6],40.6 µM (active)
c1ccc(-c2ccccc2OCCOCCN2CCCCC2)cc1,EC50,[1],2.11 µM (active)
CCc1c(O)nc(SCC(=O)Nc2ccc3c(c2)CCC3)nc1O,IC50,[6],8.08 µM (active)
COc1cccc(C(CNC(=O)C(c2ccccc2)c2ccccc2)N(C)C)c1 (configuration not stated),EC50,[1],0.944 µM (active)
O=C(O)c1cc(-c2ccco2)nc2ccccc12,IC50,[10],> 66 µM (inactive)
same,IC50,[2],23.4 µM (active)
same,IC50,[11],> 66 µM (inactive)
Cc1ccc(NC(=O)c2sc3nc4c(c(-c5ccco5)c3c2N)CCC4)cc1,EC50,[12],2.13 µM (active)
same,IC50,[2],> 50 µM (not active)
same,EC50,[13],2.85 µM (active)
CCOC(=O)c1cc(-c2ccc3c(c2)OCCO3)n[nH]1,EC50,[14],0.345 µM (active)
same,IC50,[5],6.04 µM (active)
same,IC50,[3],> 100 µM (not active)
CC(=O)Nc1n[nH]c(SCc2ccc(Br)cc2)n1,IC50,[5],> 100 µM (inactive)
same,IC50,[3],> 100 µM (not active)
Cc1ccc(S(=O)(=O)Cc2ccc(C(=O)NCc3ccc4c(c3)OCO4)o2)cc1,IC50,[2],37.5 µM (not active)
COc1ccc(Br)cc1S(=O)(=O)Nc1ccc2ccccc2c1,IC50,[5],> 10 µM (inactive)
same,IC50,[3],> 10 µM (inconclusive)
COc1ccc(Cc2nnc(N3C(=O)[C@H]4CC=CC[C@H]4C3=O)[nH]2)cc1,IC50,[5],96 µM (active)
same,IC50,[3],> 100 µM (not active)
COc1ccc(C(=O)NCCc2ccc(Cl)cc2)cc1S(=O)(=O)N1CCCCC1C (configuration not stated),AC50,[15],21.7 µM (active)
same,AC50,[16],67.5 µM (active)
same,AC50,[17],11.4 µM (active)
C[C@H](CO)N1C[C@H](C)[C@H](CN(C)Cc2ccc(Cl)c(Cl)c2)Oc2c(NS(=O)(=O)c3ccc(Cl)cc3)cccc2C1=O,AC50,[15],26.9 µM (active)
same,AC50,[16],20.1 µM (active)
same,AC50,[17],42.9 µM (active)
same,AC50,[18],13.7 µM (active)
Cc1ccc(/C=c2/sc3nnc(-c4ccccc4Cl)n3c2=O)o1,IC50,[6],28.7 µM (active)
